Measured values as given in patent US8901301B2, “Pyrrolo[2,3-]pyridine kinase inhibitors” (Plexxikon Inc., priority 2009, dated 2014).

Columns and labels:
Hgk = Hgk (Homo sapiens, UniProt O95819); assay: Biochemical inhibitory activity, other protein kinases: Hgk; conditions: for Kinase having IC50 of >1 μM: listing of the kinase means IC50 >1 μM; for Kinase having IC50 of <1 μM: listing of the kinase means IC50 <1 μM
[1] = test system: Colo205 colorectal tumor cells with BRaf V600E mutation; assay: Colo205 xenograft mouse model; type: in vivo; conditions: female nu/nu mice, 10 mg/kg daily for fourteen days, vs vehicle control
Description: Female nu/nu mice are implanted with Colo-205 trocar fragments from donor mice, sub-cutaneous and high in the axilla. Tumor growth is monitored to approximately 100 mg size, and mice are distributed to treatment groups such that the mean tumor burden within a group is within 10% of the overall mean tumor burden. Mice are treated with vehicle control, positive control or compound (8 mice per group) in 5% DMSO and 95% CMC (1%), with compound dosed at 10 mg/kg daily for fourteen days. Mice are observed daily, with tumor burden and body weights measured twice a week. Animals with tumor burden above 1500-2000 mg and any animals in moribund condition are euthanized. The average tumor growth of vehicle control group mice is compared to the average tumor growth of the test compound mice. Percent tumor growth inhibition is calculated as 100×[(tumor growth control-tumor growth test compound)/tumor growth control].

TrkA = TrkA (Homo sapiens, UniProt P04629); assay: Biochemical inhibitory activity, other protein kinases: TrkA; conditions: listing of the kinase means IC50 >1 μM
Chain of TrkA (P04629 33-796, species assumed): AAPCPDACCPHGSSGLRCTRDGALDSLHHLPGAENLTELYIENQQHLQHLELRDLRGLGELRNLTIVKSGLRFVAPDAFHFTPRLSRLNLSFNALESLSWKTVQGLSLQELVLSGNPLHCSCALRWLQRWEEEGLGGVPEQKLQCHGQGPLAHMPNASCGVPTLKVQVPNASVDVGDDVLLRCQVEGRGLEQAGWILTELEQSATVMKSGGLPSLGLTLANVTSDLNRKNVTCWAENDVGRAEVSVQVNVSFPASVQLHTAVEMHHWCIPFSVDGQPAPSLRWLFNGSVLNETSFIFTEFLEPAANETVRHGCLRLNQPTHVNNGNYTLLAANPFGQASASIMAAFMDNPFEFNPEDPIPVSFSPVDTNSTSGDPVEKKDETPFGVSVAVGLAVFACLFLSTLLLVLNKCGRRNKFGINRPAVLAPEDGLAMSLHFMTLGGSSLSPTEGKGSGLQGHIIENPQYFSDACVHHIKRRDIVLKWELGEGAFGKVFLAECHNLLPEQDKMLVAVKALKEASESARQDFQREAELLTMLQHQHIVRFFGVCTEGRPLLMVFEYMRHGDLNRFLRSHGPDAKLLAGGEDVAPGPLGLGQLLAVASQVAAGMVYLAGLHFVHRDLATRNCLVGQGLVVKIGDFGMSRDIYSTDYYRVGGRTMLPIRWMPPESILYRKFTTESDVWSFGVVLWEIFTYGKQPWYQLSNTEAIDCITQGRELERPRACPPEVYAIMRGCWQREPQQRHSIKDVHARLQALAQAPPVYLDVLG

MAPKAPK2 = MAPKAPK2 (Homo sapiens, UniProt P49137); assay: Biochemical inhibitory activity, other protein kinases: MAPKAPK2; conditions: listing of the kinase means IC50 >1 μM
Chain of MAPKAPK2 (P49137 whole entry, species assumed): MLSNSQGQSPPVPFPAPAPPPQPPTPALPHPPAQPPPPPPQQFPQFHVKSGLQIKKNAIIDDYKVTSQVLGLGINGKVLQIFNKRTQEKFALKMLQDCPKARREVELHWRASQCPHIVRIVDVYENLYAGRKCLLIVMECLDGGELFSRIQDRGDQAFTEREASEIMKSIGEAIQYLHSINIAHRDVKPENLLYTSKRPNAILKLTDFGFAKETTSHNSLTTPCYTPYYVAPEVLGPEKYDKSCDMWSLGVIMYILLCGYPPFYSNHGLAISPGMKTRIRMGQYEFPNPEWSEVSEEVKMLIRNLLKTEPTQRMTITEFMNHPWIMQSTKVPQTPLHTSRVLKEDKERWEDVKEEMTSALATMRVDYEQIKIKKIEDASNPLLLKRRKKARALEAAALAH

Tec = target: T1, Tec (Homo sapiens, UniProt P42680); assay: Biochemical inhibitory activity, other protein kinases: Tec; conditions: for Kinase having IC50 of <1 μM: listing of the kinase means IC50 <1 μM; for Kinase having IC50 of >1 μM: listing of the kinase means IC50 >1 μM
T1 sequence (P42680 1-631): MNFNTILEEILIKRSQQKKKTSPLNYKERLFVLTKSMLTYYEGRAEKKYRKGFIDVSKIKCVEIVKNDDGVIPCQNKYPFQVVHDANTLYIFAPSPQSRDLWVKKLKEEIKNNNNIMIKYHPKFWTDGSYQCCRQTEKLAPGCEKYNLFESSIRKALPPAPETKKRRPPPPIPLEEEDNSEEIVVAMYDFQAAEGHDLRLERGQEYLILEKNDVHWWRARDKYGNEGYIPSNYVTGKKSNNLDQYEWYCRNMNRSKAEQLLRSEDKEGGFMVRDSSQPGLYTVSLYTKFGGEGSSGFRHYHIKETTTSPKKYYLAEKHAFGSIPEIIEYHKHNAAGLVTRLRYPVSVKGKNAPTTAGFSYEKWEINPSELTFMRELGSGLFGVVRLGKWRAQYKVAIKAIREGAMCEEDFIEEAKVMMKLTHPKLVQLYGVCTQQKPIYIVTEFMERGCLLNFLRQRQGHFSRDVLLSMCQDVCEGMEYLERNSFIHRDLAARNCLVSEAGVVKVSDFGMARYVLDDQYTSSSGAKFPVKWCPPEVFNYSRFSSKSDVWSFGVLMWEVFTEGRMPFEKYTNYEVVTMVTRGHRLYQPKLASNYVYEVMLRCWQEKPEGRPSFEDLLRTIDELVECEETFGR

Jnk1 = Jnk1 (Homo sapiens, UniProt P45983); assay: Biochemical inhibitory activity, other protein kinases: Jnk1; conditions: listing of the kinase means IC50 >1 μM
Chain of Jnk1 (P45983 whole entry, species assumed): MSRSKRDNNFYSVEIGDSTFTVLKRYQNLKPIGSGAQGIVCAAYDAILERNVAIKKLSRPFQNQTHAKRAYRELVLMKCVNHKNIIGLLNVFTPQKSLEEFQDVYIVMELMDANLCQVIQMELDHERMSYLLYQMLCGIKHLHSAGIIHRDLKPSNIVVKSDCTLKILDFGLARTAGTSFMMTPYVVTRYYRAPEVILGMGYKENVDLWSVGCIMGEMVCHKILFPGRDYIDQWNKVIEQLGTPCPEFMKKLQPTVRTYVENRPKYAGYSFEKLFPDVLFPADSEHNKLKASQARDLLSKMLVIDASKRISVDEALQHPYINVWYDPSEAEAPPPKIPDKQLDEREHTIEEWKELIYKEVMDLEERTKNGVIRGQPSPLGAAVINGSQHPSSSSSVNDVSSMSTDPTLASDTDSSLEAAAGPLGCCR

Itk = target: T2, Itk (Homo sapiens, UniProt Q08881); assay: Biochemical inhibitory activity, other protein kinases: Itk; conditions: listing of the kinase means IC50 >1 μM
T2 sequence (Q08881 1-620): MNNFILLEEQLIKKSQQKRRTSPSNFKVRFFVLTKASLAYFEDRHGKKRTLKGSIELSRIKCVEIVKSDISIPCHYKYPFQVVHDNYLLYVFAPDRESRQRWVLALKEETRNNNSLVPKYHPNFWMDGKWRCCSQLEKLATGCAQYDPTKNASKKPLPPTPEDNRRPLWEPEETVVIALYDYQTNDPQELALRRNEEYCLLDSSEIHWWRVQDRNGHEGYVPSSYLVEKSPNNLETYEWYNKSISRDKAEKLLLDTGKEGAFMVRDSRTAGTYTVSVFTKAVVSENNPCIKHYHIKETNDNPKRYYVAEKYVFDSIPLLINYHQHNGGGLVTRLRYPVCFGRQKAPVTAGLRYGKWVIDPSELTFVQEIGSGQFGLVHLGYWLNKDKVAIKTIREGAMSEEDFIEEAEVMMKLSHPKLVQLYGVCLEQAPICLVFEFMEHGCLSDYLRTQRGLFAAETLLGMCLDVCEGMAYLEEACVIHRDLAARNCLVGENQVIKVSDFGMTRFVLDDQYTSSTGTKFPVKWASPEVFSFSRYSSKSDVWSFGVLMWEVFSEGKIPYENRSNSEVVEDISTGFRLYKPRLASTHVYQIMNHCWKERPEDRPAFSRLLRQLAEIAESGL

Brk = Brk (Homo sapiens, UniProt Q13882); assay: Biochemical inhibitory activity, other protein kinases: Brk; conditions: listing of the kinase means IC50 <1 μM
Chain of Brk (Q13882 whole entry, species assumed): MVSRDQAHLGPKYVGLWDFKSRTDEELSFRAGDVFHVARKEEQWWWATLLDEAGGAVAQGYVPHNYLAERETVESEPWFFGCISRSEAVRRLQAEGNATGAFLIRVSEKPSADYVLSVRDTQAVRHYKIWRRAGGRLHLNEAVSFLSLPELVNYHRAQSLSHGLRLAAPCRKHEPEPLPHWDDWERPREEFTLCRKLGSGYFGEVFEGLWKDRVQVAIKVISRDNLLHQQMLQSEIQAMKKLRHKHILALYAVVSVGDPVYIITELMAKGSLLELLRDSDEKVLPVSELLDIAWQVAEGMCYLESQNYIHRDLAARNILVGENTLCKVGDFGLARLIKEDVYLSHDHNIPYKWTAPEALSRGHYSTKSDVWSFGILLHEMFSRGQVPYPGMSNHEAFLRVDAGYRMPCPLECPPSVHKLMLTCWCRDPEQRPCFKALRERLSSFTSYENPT

Ack1 = Ack1 (Homo sapiens, UniProt Q07912); assay: Biochemical inhibitory activity, other protein kinases: Ack1; conditions: listing of the kinase means IC50 <1 μM
Flt1 = Flt1 (Homo sapiens, UniProt P17948); assay: Biochemical inhibitory activity, other protein kinases: Flt1; conditions: listing of the kinase means IC50 >1 μM
Chain of Flt1 (P17948 27-1338, species assumed): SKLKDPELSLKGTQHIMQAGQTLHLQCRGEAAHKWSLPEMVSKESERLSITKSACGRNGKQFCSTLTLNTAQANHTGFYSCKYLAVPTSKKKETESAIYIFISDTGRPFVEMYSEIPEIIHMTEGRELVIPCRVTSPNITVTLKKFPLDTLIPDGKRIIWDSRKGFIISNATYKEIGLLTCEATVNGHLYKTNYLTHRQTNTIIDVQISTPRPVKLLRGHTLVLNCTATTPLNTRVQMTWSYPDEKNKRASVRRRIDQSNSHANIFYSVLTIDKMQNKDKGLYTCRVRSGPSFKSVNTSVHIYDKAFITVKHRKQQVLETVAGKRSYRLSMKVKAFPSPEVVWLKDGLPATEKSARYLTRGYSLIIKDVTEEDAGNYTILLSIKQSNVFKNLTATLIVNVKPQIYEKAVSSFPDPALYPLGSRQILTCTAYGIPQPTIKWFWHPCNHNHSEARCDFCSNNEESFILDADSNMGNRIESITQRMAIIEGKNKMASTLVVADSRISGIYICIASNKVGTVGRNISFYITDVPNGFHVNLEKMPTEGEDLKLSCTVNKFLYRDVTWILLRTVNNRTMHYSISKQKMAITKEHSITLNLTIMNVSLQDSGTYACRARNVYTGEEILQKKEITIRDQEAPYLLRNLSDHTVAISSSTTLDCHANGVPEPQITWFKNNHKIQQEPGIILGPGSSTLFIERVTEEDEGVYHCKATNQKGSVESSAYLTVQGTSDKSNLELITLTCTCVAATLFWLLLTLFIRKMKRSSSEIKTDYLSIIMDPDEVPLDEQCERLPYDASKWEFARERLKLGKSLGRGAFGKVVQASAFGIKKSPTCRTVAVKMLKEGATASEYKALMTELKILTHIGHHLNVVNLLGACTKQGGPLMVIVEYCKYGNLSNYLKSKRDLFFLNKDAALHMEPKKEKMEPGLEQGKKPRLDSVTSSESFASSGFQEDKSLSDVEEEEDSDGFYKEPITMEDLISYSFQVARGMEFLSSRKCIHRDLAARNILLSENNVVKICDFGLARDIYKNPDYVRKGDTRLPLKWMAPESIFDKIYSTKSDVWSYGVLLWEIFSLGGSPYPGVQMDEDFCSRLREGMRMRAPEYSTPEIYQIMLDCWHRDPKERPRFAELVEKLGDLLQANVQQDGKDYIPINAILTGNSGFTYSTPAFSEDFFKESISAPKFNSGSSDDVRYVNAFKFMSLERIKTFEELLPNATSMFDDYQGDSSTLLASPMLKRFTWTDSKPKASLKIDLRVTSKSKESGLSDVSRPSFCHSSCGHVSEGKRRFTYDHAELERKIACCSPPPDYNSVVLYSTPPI

mTor = mTor (Homo sapiens, UniProt P42345); assay: Biochemical inhibitory activity, other protein kinases: mTor; conditions: listing of the kinase means IC50 >1 μM
PI3Kγ = PI3Kγ (Homo sapiens, UniProt P48736); assay: Biochemical inhibitory activity, other protein kinases: PI3Kγ; conditions: listing of the kinase means IC50 >1 μM
PI3Kδ = PI3Kδ (Homo sapiens, UniProt O00329); assay: Biochemical inhibitory activity, other protein kinases: PI3Kδ; conditions: listing of the kinase means IC50 >1 μM
Trk = Trk (Homo sapiens, UniProt P04629); assay: Biochemical inhibitory activity, other protein kinases: Trk; conditions: listing of the kinase means IC50 >1 μM
Chain of Trk (P04629 33-796, species assumed): as the sequence (P04629 33-796, species assumed) above

PI3Kα = PI3Kα (Homo sapiens, UniProt P42336); assay: Biochemical inhibitory activity, other protein kinases: PI3Kα; conditions: listing of the kinase means IC50 >1 μM

Chain of Hgk (O95819 whole entry, species assumed): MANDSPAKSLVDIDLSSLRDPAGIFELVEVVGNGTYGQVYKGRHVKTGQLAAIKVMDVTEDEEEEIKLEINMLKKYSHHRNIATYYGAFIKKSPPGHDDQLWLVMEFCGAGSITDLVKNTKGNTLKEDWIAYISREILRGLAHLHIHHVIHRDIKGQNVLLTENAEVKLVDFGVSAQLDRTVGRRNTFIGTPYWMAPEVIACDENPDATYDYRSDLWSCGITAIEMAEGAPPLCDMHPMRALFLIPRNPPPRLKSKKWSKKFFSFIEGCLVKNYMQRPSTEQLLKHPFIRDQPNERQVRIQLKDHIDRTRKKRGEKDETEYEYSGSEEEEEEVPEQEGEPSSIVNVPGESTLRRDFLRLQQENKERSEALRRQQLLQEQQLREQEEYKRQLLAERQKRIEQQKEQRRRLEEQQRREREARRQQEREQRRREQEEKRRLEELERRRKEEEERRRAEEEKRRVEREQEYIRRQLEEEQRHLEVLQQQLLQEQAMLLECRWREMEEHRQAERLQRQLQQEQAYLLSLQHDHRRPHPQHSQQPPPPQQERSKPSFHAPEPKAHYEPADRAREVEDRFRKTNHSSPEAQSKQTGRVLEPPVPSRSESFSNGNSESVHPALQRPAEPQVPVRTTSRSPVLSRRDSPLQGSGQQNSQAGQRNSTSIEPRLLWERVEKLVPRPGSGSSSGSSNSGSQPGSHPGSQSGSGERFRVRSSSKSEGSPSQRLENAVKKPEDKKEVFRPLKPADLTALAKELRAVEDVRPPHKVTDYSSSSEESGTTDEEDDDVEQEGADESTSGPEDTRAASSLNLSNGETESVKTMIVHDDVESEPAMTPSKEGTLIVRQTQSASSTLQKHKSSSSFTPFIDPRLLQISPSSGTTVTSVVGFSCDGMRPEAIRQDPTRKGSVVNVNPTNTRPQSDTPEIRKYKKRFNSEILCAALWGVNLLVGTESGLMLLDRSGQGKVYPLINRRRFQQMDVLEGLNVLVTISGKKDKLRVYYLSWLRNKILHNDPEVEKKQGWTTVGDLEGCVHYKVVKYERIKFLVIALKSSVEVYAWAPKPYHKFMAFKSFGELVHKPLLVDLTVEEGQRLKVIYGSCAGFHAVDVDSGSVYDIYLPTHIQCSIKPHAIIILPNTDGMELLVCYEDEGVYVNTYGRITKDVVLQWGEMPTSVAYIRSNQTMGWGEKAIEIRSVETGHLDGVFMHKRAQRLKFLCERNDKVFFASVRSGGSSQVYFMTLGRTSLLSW

Structure (SMILES) | Kinase having IC50 of >1 μM (Hgk) | Kinase having IC50 of >1 μM (TrkA) | Kinase having IC50 of >1 μM (MAPKAPK2) | Kinase having IC50 of <1 μM (Tec) | Kinase having IC50 of <1 μM (Hgk) | Kinase having IC50 of >1 μM (Jnk1) | Kinase having IC50 of >1 μM (Tec) | Kinase having IC50 of >1 μM (Itk) | Kinase having IC50 of <1 μM (Brk) | Kinase having IC50 of <1 μM (Ack1) | Kinase having IC50 of >1 μM (Flt1) | Kinase having IC50 of >1 μM (mTor) | Kinase having IC50 of >1 μM (PI3Kγ) | Kinase having IC50 of >1 μM (PI3Kδ) | Kinase having IC50 of >1 μM (Trk) | Kinase having IC50 of >1 μM (PI3Kα) | % Tumor growth inhibition [1] [%]
N#Cc1cnc2[nH]cc(C(=O)c3c(F)ccc(NS(=O)(=O)N4CCCC4)c3F)c2c1 [Compound P-0006, pyrrolidine-1-sulfonic acid [3-(5-cyano-1H-pyrrolo[2,3-b]pyridine-3-carbonyl)-2,4-difluoro-phenyl]-amide] | Hgk |  | MAPKAPK2 | Tec |  |  |  |  |  |  |  |  |  |  |  |  | 82
N#Cc1cnc2[nH]cc(C(=O)c3c(F)ccc(NS(=O)(=O)c4cc(F)ccc4F)c3F)c2c1 [Compound P-0004, N-[3-(5-cyano-1H-pyrrolo[2,3-b]pyridine-3-carbonyl)-2,4-difluoro-phenyl]-2,5-difluoro-benzenesulfonamide] |  |  |  |  | Hgk | Jnk1 | Tec | Itk |  |  |  |  |  |  |  |  | 103
CCCS(=O)(=O)Nc1ccc(F)c(C(=O)c2c[nH]c3ncc(-c4cnc(OC)nc4)cc23)c1F [Compound P-0001, propane-1-sulfonic acid {2,4-difluoro-3-[5-(2-methoxy-pyrimidin-5-yl)-1H-pyrrolo[2,3-b]pyridine-3-carbonyl]-phenyl}-amide] | Hgk |  | MAPKAPK2 | Tec |  | Jnk1 |  | Itk | Brk |  |  | mTor | PI3Kγ | PI3Kδ | Trk | PI3Kα | 43

Continued, in another order:

Kinase having IC50 of >1 μM (Hgk) | Kinase having IC50 of >1 μM (TrkA) | Kinase having IC50 of >1 μM (MAPKAPK2) | Kinase having IC50 of <1 μM (Tec) | Kinase having IC50 of <1 μM (Hgk) | Kinase having IC50 of >1 μM (Jnk1) | Kinase having IC50 of >1 μM (Tec) | Kinase having IC50 of >1 μM (Itk) | Kinase having IC50 of <1 μM (Brk) | Kinase having IC50 of <1 μM (Ack1) | Kinase having IC50 of >1 μM (Flt1) | Kinase having IC50 of >1 μM (mTor) | Kinase having IC50 of >1 μM (PI3Kγ) | Kinase having IC50 of >1 μM (PI3Kδ) | Kinase having IC50 of >1 μM (Trk) | Kinase having IC50 of >1 μM (PI3Kα) | Structure (SMILES) | % Tumor growth inhibition [1] [%]
Hgk | TrkA | MAPKAPK2 |  |  |  |  |  |  |  |  |  |  |  |  |  | CCCS(=O)(=O)Nc1cccc(C(=O)c2c[nH]c3ncc(C#N)cc23)c1F [Compound P-0003, propane-1-sulfonic acid [3-(5-cyano-1H-pyrrolo[2,3-b]pyridine-3-carbonyl)-2-fluoro-phenyl]-amide] | 91
Hgk |  | MAPKAPK2 |  |  | Jnk1 | Tec | Itk |  |  |  |  |  |  |  |  | CN(C)S(=O)(=O)Nc1ccc(F)c(C(=O)c2c[nH]c3ncc(C#N)cc23)c1F [Compound P-0007, N,N-dimethylamino-sulfonic acid [3-(5-cyano-1H-pyrrolo[2,3-b]pyridine-3-carbonyl)-2,4-difluoro-phenyl]-amide] | 86
Hgk | TrkA | MAPKAPK2 |  |  |  | Tec | Itk | Brk | Ack1 | Flt1 |  |  |  |  |  | CCCS(=O)(=O)Nc1ccc(F)c(C(=O)c2c[nH]c3ncc(C#N)cc23)c1F [Compound P-0002, propane-1-sulfonic acid [3-(5-cyano-1H-pyrrolo[2,3-b]pyridine-3-carbonyl)-2,4-difluoro-phenyl]-amide] | 80
 |  |  |  | Hgk | Jnk1 | Tec | Itk |  |  |  |  |  |  |  |  | N#Cc1cnc2[nH]cc(C(=O)c3c(F)ccc(NS(=O)(=O)c4cccc(F)c4)c3F)c2c1 [Compound P-0005, N-[3-(5-cyano-1H-pyrrolo[2,3-b]pyridine-3-carbonyl)-2,4-difluoro-phenyl]-3-fluoro-benzenesulfonamide] | 88
